Measured values as given in patent publication US11807644B2 (PMV Pharmaceuticals, Inc., priority 2020, dated 2023).

Biological target: T1, recombinant His-tag Y220C p53 DBD protein (Homo sapiens, UniProt P04637, Y220C)
T1 construct: recombinant His-tag Y220C p53 DBD protein (amino acids #˜94-312)
Assay: In vitro DNA binding activity assay (TR-FRET): binding of His-tag Y220C p53 DBD to biotin-labeled consensus DNA
Format: biochemical
Details: SC150 = concentration to increase DNA binding by […], His-tag Y220C p53 DBD, biotin-labeled consensus DNA

SMILES | Y220C SC150 (μM)
Cc1c[nH]c2cc(C(=O)NCc3nc(-c4cc5c(N[C@@H]6CCN(C)C[C@@H]6F)cccc5n4CC(F)(F)F)no3)ccc12 [Compound 274B, N-{[3-(4-{[(3S,4R)-3-fluoro-1-methylpiperidin-4-yl]amino}-1-(2,2,2-trifluoroethyl)-1H-indol-2-yl)-1,2,4-oxadiazol-5-yl]methyl}-3-methyl-1H-indole-6-carboxamide] | * (* = 0 μM ≤ SC150 < 0.1 μM)
CN1CC[C@@H](Nc2cccc3c2cc(-c2cc(CNc4ccc(S(C)(=O)=O)cc4)cs2)n3CC(F)(F)F)[C@@H](F)C1 [Compound 284B, N-[(3S,4R)-3-fluoro-1-methylpiperidin-4-yl]-2-(4-{[(4-methanesulfonylphenyl)amino]methyl}thiophen-2-yl)-1-(2,2,2-trifluoroethyl)-1H-indol-4-amine] | ** (** = 0.1 μM ≤ SC150 < 0.5 μM)
CN1CC[C@@H](Nc2cccc3c2cc(-c2nnc(CNC(=O)c4ccn(C5(C)CCOCC5)c4)s2)n3CC(F)(F)F)[C@@H](F)C1 [Compound 287B, N-{[5-(4-{[(3S,4R)-3-fluoro-1-methylpiperidin-4-yl]amino}-1-(2,2,2-trifluoroethyl)-1H-indol-2-yl)-1,3,4-thiadiazol-2-yl]methyl}-1-(4-methyloxan-4-yl)-1H-pyrrole-3-carboxamide] | * (* = 0 μM ≤ SC150 < 0.1 μM)
COCC(C)n1ccc(C(=O)NCc2nc(-c3cc4c(N[C@@H]5CCN(C)C[C@@H]5F)cccc4n3CC(F)(F)F)no2)c1 (stereo partly drawn) [Compound 289B, N-{[3-(4-{[(3S,4R)-3-fluoro-1-methylpiperidin-4-yl]amino}-1-(2,2,2-trifluoroethyl)-1H-indol-2-yl)-1,2,4-oxadiazol-5-yl]methyl}-1-(1-methoxypropan-2-yl)-1H-pyrrole-3-carboxamide] | * (* = 0 μM ≤ SC150 < 0.1 μM)
COCCn1cc(C(=O)NCc2nc(-c3cc4c(N[C@@H]5CCN(C)C[C@@H]5F)cccc4n3CC(F)(F)F)no2)cn1 [Compound 290B, N-{[3-(4-{[(3S,4R)-3-fluoro-1-methylpiperidin-4-yl]amino}-1-(2,2,2-trifluoroethyl)-1H-indol-2-yl)-1,2,4-oxadiazol-5-yl]methyl}-1-(2-methoxyethyl)-1H-pyrazole-4-carboxamide] | * (* = 0 μM ≤ SC150 < 0.1 μM)

More lines, now with the values ahead:

Y220C SC150 (μM) | SMILES
** (** = 0.1 μM ≤ SC150 < 0.5 μM) | CN1CC[C@@H](Nc2cccc3c2cc(-c2cc(CNC(=O)c4ccn(C(C)(C)C)c4)cs2)n3CC(F)(F)F)[C@@H](F)C1 [Compound 283B, 1-tert-butyl-N-{[5-(4-{[(3S,4R)-3-fluoro-1-methylpiperidin-4-yl]amino}-1-(2,2,2-trifluoroethyl)-1H-indol-2-yl)thiophen-3-yl]methyl}-1H-pyrrole-3-carboxamide]
** (** = 0.1 μM ≤ SC150 < 0.5 μM) | CN1CC[C@@H](Nc2cccc3c2cc(-c2ccc(CNC(=O)c4cnn(C(C)(C)C)c4)cn2)n3CC(F)(F)F)[C@@H](F)C1 [Compound 285B, 1-tert-butyl-N-{[6-(4-{[(3S,4R)-3-fluoro-1-methylpiperidin-4-yl]amino}-1-(2,2,2-trifluoroethyl)-1H-indol-2-yl)pyridin-3-yl]methyl}-1H-pyrazole-4-carboxamide]
* (* = 0 μM ≤ SC150 < 0.1 μM) | CN1CC[C@@H](Nc2cccc3c2cc(-c2nnc(CNC(=O)c4ccn(C(C)(C)C)c4)s2)n3CC(F)(F)F)[C@@H](F)C1 [Compound 286B, 1-tert-butyl-N-{[5-(4-{[(3S,4R)-3-fluoro-1-methylpiperidin-4-yl]amino}-1-(2,2,2-trifluoroethyl)-1H-indol-2-yl)-1,3,4-thiadiazol-2-yl]methyl}-1H-pyrrole-3-carboxamide]
* (* = 0 μM ≤ SC150 < 0.1 μM) | CN1CC[C@@H](Nc2cccc3c2cc(-c2nnc(CNC(=O)c4ccn(C(C)(C)C)c4)o2)n3CC(F)(F)F)[C@@H](F)C1 [Compound 288B, 1-tert-butyl-N-{[5-(4-{[(3S,4R)-3-fluoro-1-methylpiperidin-4-yl]amino}-1-(2,2,2-trifluoroethyl)-1H-indol-2-yl)-1,3,4-oxadiazol-2-yl]methyl}-1H-pyrrole-3-carboxamide]
